Experimental data: the supplement of paper PMC13380429

How the values were obtained:
Conditions in all cases: 72 h
Calu-3 [1] = assay: drug sensitivity score (DSS) for viability; higher = more toxic; extreme values may be limits of the assay
Vero E6 [2] = assay: as above
U2OS [3] = assay: as above
HepG2 [4] = assay: as above
Caco-2 [5] = assay: as above
Calu-3 [6] = assay: cell viability relative to DMSO; higher = less toxic
Vero E6 [7] = assay: as above
U2OS [8] = assay: as above
HepG2 [9] = assay: as above
Caco-2 [10] = assay: as above
Calu-3 [11] = assay: relative viability EC50 (midpoint between 100% and the lowest measured viability); higher = less toxic
Vero E6 [12] = assay: as above
U2OS [13] = assay: as above
HepG2 [14] = assay: as above
Caco-2 [15] = assay: as above

SMILES | drug sensitivity score (Calu-3 [1]) | drug sensitivity score (Vero E6 [2]) | drug sensitivity score (U2OS [3]) | drug sensitivity score (HepG2 [4]) | drug sensitivity score (Caco-2 [5]) | cell viability (Calu-3 [6]; 1 nM) | cell viability (Calu-3 [6]; 10 nM) | cell viability (Calu-3 [6]; 100 nM) | cell viability (Calu-3 [6]; 1000 nM) | cell viability (Calu-3 [6]; 10000 nM) | cell viability (Vero E6 [7]; 1 nM) | cell viability (Vero E6 [7]; 10 nM) | cell viability (Vero E6 [7]; 100 nM) | cell viability (Vero E6 [7]; 1000 nM) | cell viability (Vero E6 [7]; 10000 nM) | cell viability (U2OS [8]; 1 nM) | cell viability (U2OS [8]; 10 nM) | cell viability (U2OS [8]; 100 nM) | cell viability (U2OS [8]; 1000 nM) | cell viability (U2OS [8]; 10000 nM) | cell viability (HepG2 [9]; 1 nM) | cell viability (HepG2 [9]; 10 nM) | cell viability (HepG2 [9]; 100 nM) | cell viability (HepG2 [9]; 1000 nM) | cell viability (HepG2 [9]; 10000 nM) | cell viability (Caco-2 [10]; 1 nM) | cell viability (Caco-2 [10]; 10 nM) | cell viability (Caco-2 [10]; 100 nM) | cell viability (Caco-2 [10]; 1000 nM) | cell viability (Caco-2 [10]; 10000 nM) | relative viability EC50 (Calu-3 [11]) | relative viability EC50 (Vero E6 [12]) | relative viability EC50 (U2OS [13]) | relative viability EC50 (HepG2 [14]) | relative viability EC50 (Caco-2 [15])
CCOC(=O)c1ccc(N(C)c2csc(-c3ccccc3)n2)cc1 [neuropathiazol] | 0 | 0 | 0 | 0 | 0 | 92.4% | 97.2% | 108% | 110% | 97.3% | 108% | 103% | 96.2% | 101% | 96.3% | 101% | 97.2% | 98.8% | 99.5% | 99.3% | 86.2% | 97.3% | 103% | 107% | 93.2% | 92.9% | 94.1% | 80.2% | 97.3% | 104% | > 10 µM | > 10 µM | > 10 µM | > 10 µM | > 10 µM
COC(=O)C1=C(C)NC(C)=C(C(=O)OCCN(C)Cc2ccccc2)C1c1cccc([N+](=O)[O-])c1 (stereo not given) [nicardipine] | 0 | 0 | 0 | 0 | 1.9 | 91.7% | 91.5% | 94.1% | 90.2% | 90.2% | 93.2% | 106% | 98.2% | 103% | 96.9% | 96.5% | 103% | 95.5% | 98.1% | 91.3% | 91.6% | 100% | 141% | 109% | 95.4% | 102% | 120% | 97.9% | 84.1% | 84.8% | > 10 µM | > 10 µM | > 10 µM | > 10 µM | > 10 µM
Cc1cc2c(s1)Nc1ccccc1N=C2N1CCN(C)CC1 [olanzapine] | 0 | 0 | 0 | 0 | 0 | 99% | 102% | 104% | 104% | 108% | 96.4% | 96.8% | 96% | 92.7% | 104% | 93.1% | 99% | 95.2% | 99.6% | 102% | 118% | 110% | 121% | 98.5% | 106% | 97.8% | 91.5% | 98.1% | 99.1% | 103% | > 10 µM | > 10 µM | > 10 µM | > 10 µM | > 10 µM
